From US7109243B2 (IRM LLC, priority 2003, dated 2006)

Legend:
Cathepsin K = biological target: T1, Cathepsin K (Homo sapiens, UniProt P43235); assay: Cathepsin K inhibition assay (fluorogenic peptide substrate); selectivity ratio vs cathepsin S; assay type: biochemical; details: ratio of cathepsin K inhibition constant to cathepsin S inhibition constant; Table II
T1 sequence (P43235 115-329): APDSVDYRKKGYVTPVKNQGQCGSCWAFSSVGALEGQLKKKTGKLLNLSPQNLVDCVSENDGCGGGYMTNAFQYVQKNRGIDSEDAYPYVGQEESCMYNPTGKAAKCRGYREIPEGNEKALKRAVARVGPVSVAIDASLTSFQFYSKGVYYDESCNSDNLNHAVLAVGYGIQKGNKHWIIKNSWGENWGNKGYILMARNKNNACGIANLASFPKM
Experimental: The optimal substrate for cathepsin K, acetyl-lysine-histidine-proline-lysine-amino carbamoyl coumarin, was identified from screening a combinatorial library of fluorogenic peptide substrates (Harris, J. L., B. J. Backes, et al., Proc Natl Acad Sci USA 2000, 97(14), 7754-9). Kinetic measurements are performed in a total reaction volume of 30 μl in 384-well microtiter plates. […] The reactions are initiated by adding the substrate, acetyl-lysine-histidine-proline-lysine-amino carbamoyl coumarin, to a final concentration of 40 μM. The rate of substrate hydrolysis is measured by monitoring the increase in fluorescence at an excitation wavelength of 380 nm and an emission wavelength of 450 nm that results from cleavage of the aniline bond in the substrate by the enzyme. The apparent inhibition constants for the compounds are determined from the enzyme progress curves ([…]. Elrod, et al., Anal Biochem 2000, 286(1), 45-50) and are then used to calculate the inhibition constants for competitive inhibitors. Selectivity for cathepsin S in the presence of cathepsin isozymes was determined by the ratio of the cathepsin isozyme inhibition constant of a compound of the present invention to the cathepsin S inhibition constant of the same compound.

Cathepsin S = Cathepsin S (Homo sapiens, UniProt P25774); assay: Cathepsin S inhibition assay (fluorogenic peptide substrate); assay type: biochemical; details: Table II, compounds of Formula I; read-out: Ki Cat. S
Experimental: “Inhibition constant”, Ki, is the dissociation constant of the enzyme-inhibitor complex, or the reciprocal of the binding affinity of the inhibitor to the enzyme. […] The inhibited rates are then fit by nonlinear regression to the following equation: […]
The assumption being made for the classical inhibition described above is that the free inhibitor concentration is equal to the total inhibitor concentration.
Kinetic measurements are performed in a total reaction volume of 30 μl in 384-well microtiter plates. […] The reactions are initiated by adding the substrate, acetyl-histidine-proline-valine-lysine-amino carbamoyl coumarin, to a final concentration of 50 μM. The rate of substrate hydrolysis is measured by monitoring the increase in fluorescence at an excitation wavelength of 380 nm and an emission wavelength of 450 nm that results from cleavage of the aniline bond in the substrate by the enzyme.

Sequence of Cathepsin S (P25774 115-331, species assumed): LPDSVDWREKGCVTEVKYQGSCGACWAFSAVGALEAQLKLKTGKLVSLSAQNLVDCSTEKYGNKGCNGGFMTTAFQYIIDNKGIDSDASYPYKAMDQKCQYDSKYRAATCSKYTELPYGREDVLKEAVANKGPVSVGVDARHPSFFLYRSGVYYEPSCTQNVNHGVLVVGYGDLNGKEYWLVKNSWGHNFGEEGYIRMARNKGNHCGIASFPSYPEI

Row | Selectivity for Cat. S over Cat. K (Cathepsin K) | Ki (Cathepsin S) | Structure (SMILES)
1 | ++ (++, >100) | < 1000 nM | Cc1cc2ncc(C(=O)N[C@@H](CC3CCCCC3)C(=O)NCCNc3ccc(OC(F)(F)F)cc3)c(C)n2n1 [Compound 48, 2,7-Dimethyl-pyrazolo[1,5-a]pyrimidine-6-carboxylic acid (S)-{2-cyclohexyl-1-[2-(4-trifluoromethoxy-phenylamino)-ethylcarbamoyl]-ethyl}-amide]
2 | ++ (++, >100) | < 100 nM | Cc1oc(S(=O)(=O)N2CCOCC2)cc1C(=O)N[C@@H](CC1CCCCC1)C(=O)NCCNc1ccc(OC(F)(F)F)cc1 [Compound 49, 2-Methyl-5-(morpholine-4-sulfonyl)-furan-3carboxylic acid (S)-{2-cyclohexyl-1-[2-(4-trifluoromethoxy-phenylamino)-ethylcarbamoyl]-ethyl}-amide]
3 | +++ (+++, >1000) | < 100 nM | O=C(N[C@@H](CC1CCCCC1)C(=O)NCCNc1ccc(OC(F)(F)F)cc1)c1ccc(-c2cccc(C(F)(F)F)c2)s1 [Compound 50, 5-(3-Trifluoromethyl-phenyl)-thiophene-2-carboxylic acid (S)-{2-cyclohexyl-1-[2-(4-trifluoromethoxy-phenylamino)-ethylcarbamoyl]-ethyl}-amide]
4 | +++ (+++, >1000) | < 100 nM | Cc1cccc(-c2ccc(C(=O)N[C@@H](CC3CCCCC3)C(=O)NCCNc3ccc(OC(F)(F)F)cc3)o2)c1 [Compound 51, 5-m-Tolyl-furan-2-carboxylic acid (S)-{2-cyclohexyl-1-[2-(4-trifluoromethoxy-phenylamino)-ethylcarbamoyl]-ethyl}-amide]
5 | + (+, >10) | < 10000 nM | COc1ccc(NCCNC(=O)[C@H](Cc2ccccc2)NC(=O)c2cccc3c2OCC3)cc1 [Compound 52, (S)-2,3-Dihydro-benzofuran-7-carboxylic acid {1-[2-(4-methoxy-phenylamino)-ethylcarbamoyl]-2-phenyl-ethyl}-amide]
6 | +++ (+++, >1000) | < 100 nM | CS(=O)(=O)c1ccc(C(=O)N[C@@H](CC2CCCCC2)C(=O)NCCNc2ccc(OC(F)(F)F)cc2)s1 [Compound 53, 5-Methanesulfonyl-thiophene-2-carboxylic acid (S)-{2-cyclohexyl-1-[2-(4-trifluoromethoxy-phenylamino)-ethylcarbamoyl]-ethyl}-amide]
7 | + (+, >10) | < 100 nM | O=C(N[C@@H](CC1CCCCC1)C(=O)NCCNc1ccc(OC(F)(F)F)cc1)c1csc(-c2ccccc2)n1 [Compound 54, 2-Phenyl-thiazole-4-carboxylic acid (S)-{2-cyclohexyl-1-[2-(4-trifluoromethoxy-phenylamino)-ethylcarbamoyl]-ethyl}-amide]
8 | ++ (++, >100) | < 1000 nM | COc1ccc(NCCNC(=O)[C@H](Cc2ccccc2)NC(=O)c2cccc(C#N)c2)cc1 [Compound 55, (S)-3-Cyano-N-{1-[2-(4-methoxy-phenylamino)-ethylcarbamoyl]-2-phenyl-ethyl}-benzamide]
9 | ++ (++, >100) | < 1000 nM | COc1ccc(NCCNC(=O)[C@H](Cc2ccccc2)NC(=O)c2cccc(-c3csc(C)n3)c2)cc1 [Compound 56, (S)-N-{1-[2-(4-Methoxy-phenylamino)-ethylcarbamoyl]-2-phenyl-ethyl}-3-(2-methyl-thiazol-4-yl)-benzamide]
10 | + (+, >10) | < 1000 nM | COc1ccc(NCCNC(=O)[C@H](Cc2ccccc2)NC(=O)Nc2ccccc2)cc1 [Compound 57, (S)-N-[2-(4-Methoxy-phenylamino)-ethyl]-3-phenyl-2-(3-phenyl-ureido)-propionamide]
11 | ++ (++, >100) | < 100 nM | O=C(NCCNc1ccc(OC(F)(F)F)cc1)[C@H](CC1CCCCC1)NC(=O)[C@@H](O)c1ccccc1 [Compound 58, 3-Cyclohexyl-2-(S)-(2-(S)-hydroxy-2-phenyl-acetylamino)-N-[2-(4-trifluoromethoxy-phenylamino)-ethyl]-propionamide]
12 | ++ (++, >100) | < 1000 nM | O=C(N[C@@H](CC1CCCCC1)C(=O)NCCNc1ccc(OC(F)(F)F)cc1)c1onc2ccccc12 [Compound 59, Benzo[c]isoxazole-3-carboxylic acid (S)-{2-cyclohexyl-1-[2-(4-trifluoromethoxy-phenylamino)-ethylcarbamoyl]-ethyl}-amide]
13 | + (+, >10) | < 100 nM | O=C(N[C@@H](CC1CCCCC1)C(=O)NCCNc1ccc(OC(F)(F)F)cc1)c1ccc(OC(F)F)cc1 [Compound 60, N-(S)-{2-cyclohexyl-1-[2-(4-trifluoromethoxy-phenylamino)-ethylcarbamoyl]-ethyl}-4-difluoromethoxy-benzamide]
14 | + (+, >10) | < 1000 nM | CC(C)Oc1ccc(C(=O)N[C@@H](CC2CCCCC2)C(=O)NCCNc2ccc(OC(F)(F)F)cc2)cc1 [Compound 61, N-(S)-{2-cyclohexyl-1-[2-(4-trifluoromethoxy-phenylamino)-ethylcarbamoyl]-ethyl}-4-isopropoxy-benzamide]
15 | ++ (++, >100) | < 100 nM | O=C(N[C@@H](CC1CCCCC1)C(=O)NCCNc1ccc(OC(F)(F)F)cc1)c1ccc(-c2ccccc2)s1 [Compound 62, 5-Phenyl-thiophene-2-carboxylic acid (S)-{2-cyclohexyl-1-[2-(4-trifluoromethoxy-phenylamino)-ethylcarbamoyl]-ethyl}-amide]
16 | + (+, >10) | < 10000 nM | COc1ccc(NCCNC(=O)[C@H](Cc2ccccc2)NC(=O)c2cccnc2)cc1 [Compound 63, (S)-N-{1-[2-(4-Methoxy-phenylamino)-ethylcarbamoyl]-2-phenyl-ethyl}-nicotinamide]
17 | + (+, >10) | < 10000 nM | COc1ccc(NCCNC(=O)[C@H](Cc2ccccc2)NC(=O)c2ccncc2)cc1 [Compound 64, (S)-N-{1-[2-(4-Methoxy-phenylamino)-ethylcarbamoyl]-2-phenyl-ethyl}-isonicotinamide]
18 | ++ (++, >100) | < 100 nM | O=C(N[C@@H](CC1CCCCC1)C(=O)NCCNc1ccc(OC(F)(F)F)cc1)c1ccc(-c2ccccc2)o1 [Compound 65, 5-Phenyl-furan-2-carboxylic acid (S)-{2-cyclohexyl-1-[2-(4-trifluoromethoxy-phenylamino)-ethylcarbamoyl]-ethyl}-amide]
19 | ++ (++, >100) | < 1000 nM | COc1ccc(NCCNC(=O)[C@H](Cc2ccc(Oc3ccccc3C)cc2)NC(=O)c2cccc(C)c2)cc1 [Compound 66, (S)-N-[1-[2-(4-Methoxy-phenylamino)-ethylcarbamoyl]-2-(4-o-tolyloxy-phenyl)-ethyl]-3-methyl-benzamide]
20 | + (+, >10) | < 100 nM | O=C(N[C@@H](CC1CCCCC1)C(=O)NCCNc1ccc(OC(F)(F)F)cc1)c1ccc(-c2cnco2)cc1 [Compound 67, N-(S)-{2-cyclohexyl-1-[2-(4-trifluoromethoxy-phenylamino)-ethylcarbamoyl]-ethyl}-4-oxazol-5-yl-benzamide]
21 | +++ (+++, >1000) | < 100 nM | Cc1ccc(-c2ccc(C(=O)N[C@@H](CC3CCCCC3)C(=O)NCCNc3ccc(OC(F)(F)F)cc3)o2)cc1 [Compound 70, 5-p-Tolyl-furan-2-carboxylic acid (S)-{2-cyclohexyl-1-[2-(4-trifluoromethoxy-phenylamino)-ethylcarbamoyl]-ethyl}-amide]
22 | ++ (++, >100) | < 100 nM | Cc1cc(C)nc(N(C)c2cccc(C(=O)N[C@@H](CC3CCCCC3)C(=O)NCCNc3ccc(OC(F)(F)F)cc3)c2)n1 [Compound 71, N-(S)-{2-cyclohexyl-1-[2-(4-trifluoromethoxy-phenylamino)-ethylcarbamoyl]-ethyl}-3-[(4,6-dimethyl-pyrimidin-2-yl)-methyl-amino]-benzamide]
23 | ++ (++, >100) | < 10000 nM | Cc1cc(C)nc(N2CCC(C(=O)N[C@@H](CC3CCCCC3)C(=O)NCCNc3ccc(OC(F)(F)F)cc3)CC2)n1 [Compound 72, 1-(4,6-Dimethyl-pyrimidin-2-yl)-piperidine-4-carboxylic acid (S)-{2-cyclohexyl-1-[2-(4-trifluoromethoxy-phenylamino)-ethylcarbamoyl]-ethyl}-amide]
